We go through 27 compounds from patent US10300155B2, “Alpha-synuclein ligands” (Washington University, priority 2015, dated 2019).

For series [1], the target named is T1, α-synuclein fibrils (Homo sapiens, UniProt P37840).
T1 construct: made in house; host or cells: E. coli BL21(DE3)RIL
Put plainly: ThT competitive assay for α-synuclein fibrils (Table 1). The format is binding. Particulars: for EC50: α-synuclein fibrils. As to the method: Upon binding to amyloid fibrils, a peak at approximately 440 nm becomes dominant with the fluorescent emission maximum shifted to 480 nm. This is accompanied by a strong enhancement of the fluorescence.
α-Synuclein recombinant protein was produced in E. coli. […] Freshly transformed BL21 colonies were inoculated into 2 L baffled flasks containing 250 mL sterilized TB (1.2% bactotryptone, 2.4% yeast extract, 0.4% glycerol, 0.17 M KH2PO4, 0.72 M K2HPO4) with 50 μg/ml ampicillin, and incubated overnight at 37° C. with shaking.
To determine the concentration of fibrils, the reaction mixture (100 μL) was centrifuged at 18,000×g for 10 minutes to separate fibrils from monomer. The α-synuclein monomer and other soluble proteins in the supernatant were removed, and the fibril pellet was resuspended in 100 μL solution of Tris-HCl (20 mM) and NaCl (100 mM). This fibril suspension was used in a bicinchoninic acid (BCA) protein assay along with a bovine serum albumin (BSA) standard curve to determine the concentration of fibrils in the 72 hour fibril reaction mixture.
To prepare the fibrils for performing binding assays, the fibril reaction mixture prepared above was centrifuged at 18,000×g for 10 minutes.
Once the ThT-α-synuclein saturation binding curve and dissociation constant (Kd) were determined the competitive assay for determining the binding affinity of various test compounds was conducted. […] The mixture was incubated at room temperature for 60 minutes on the shaking plate. The fluorescent intensity for each cell was measured by the fluorescence reader at λex and λem. The Ki value for each compound was calculated by the corresponding inhibition curve.
The Ki values were derived from the EC50 values using the Cheng-Prusoff equation: Ki=EC50/(1+[radioligand]/Kd). See FIGS. 17.1-31.2 for the inhibition curves for each compound in the ThioT competitive binding assay.

A short description of series [2]: Biodistribution in male Balb/C mice. It counts as in vivo. Particulars: for Biodistribution: Blood / Biodistribution: Brain / Biodistribution: Fat / Biodistribution: Heart / Biodistribution: Kidney / Biodistribution: Liver / Biodistribution: Lung / Biodistribution: Muscle / Biodistribution: Pancreas / Biodistribution: Spleen: tail vein, mean ± SD, n = 4. As to the method: For the biodistribution studies, 100˜130 μCi of [^11C] TZ-20-35 in ˜100 μL of 10% ethanol/saline solution (v/v) was injected via the tail vein into mature male Balb/C mice (19-24 g) under anesthesia (2.5% isoflurane in oxygen at a flow rate of 1 mL/min). A group of at least four […] were used for each time point. […] The whole brain was quickly harvested. At the same time, samples of blood, heart, lung, liver, spleen, pancreas, kidney, muscle, fat, and tail were dissected. All the tissue samples were collected in tared tubes and counted in an automated gamma counter (Beckman Gamma 8000 well counter) with standards, prepared by diluting the injectate. The counted tissues were then weighed, and the % ID/g was calculated (Table 4).

Setting [3] is: average, read-out: Ki (nM) α-syn (avg).
Setting [4] is: individual determinations, read-out: Ki (nM) α-syn.
The mark [5] stands for this setting: average, read-out: EC50 (nM) EC50 (avg).
Setting [6] is: individual determinations, read-out: EC50 (nM) EC50.

Values joined by “and” are separate entries in the source; they are usually repeats but may differ in a detail not shown here. Identical values can stand only once. Like-named read-outs stand apart in the source and are kept apart here.

Turning to `Brc1ccc(/C=C/c2ccsc2)cc1` [TZ-34-58], the Ki in series [1] (setting [3]) and in series [1] (setting [4]) was 319 nM each time. The EC50 in series [1] (setting [5]) and in series [1] (setting [6]) was 834 nM throughout.
For the compound `Fc1ccc(/C=C/c2ccsc2)cc1` [TZ-34-59], the Ki in series [1] (setting [3]) and in series [1] (setting [4]) was 860 nM throughout. Besides, the EC50 in series [1] (setting [5]) and in series [1] (setting [6]) was 2250 nM in each case.
With `Fc1ccc(/C=C/c2cccs2)cc1` [TZ-34-60], the Ki in series [1] (setting [3]) and in series [1] (setting [4]) was 1000 nM each time. The EC50 in series [1] (setting [5]) and in series [1] (setting [6]) was 1000 nM in each case.
For `Ic1ccc(/C=C/c2cccs2)cc1` [TZ-34-63], the Ki in series [1] (setting [3]) and in series [1] (setting [4]) was 80 nM throughout. The EC50 in series [1] (setting [5]) and in series [1] (setting [6]) was 208 nM throughout.
As for `Ic1ccc(/C=C/c2ccsc2)cc1` [TZ-34-64], the inhibition constant (Ki) in series [1] (setting [3]) and in series [1] (setting [4]) was 115 nM in each case. For the same compound, the EC50 in series [1] (setting [5]) and in series [1] (setting [6]) was 300 nM throughout.
As to `O=[N+]([O-])c1ccc(/C=C/c2cccs2)cc1` [TZ-34-74], the Ki in series [1] (setting [3]) and in series [1] (setting [4]) was 55 nM in each case. Further, the EC50 in series [1] (setting [5]) and in series [1] (setting [6]) was 145 nM each time.
As for `Ic1ccc(/C=C/c2ccoc2)cc1` [TZ-34-86], the Ki in series [1] (setting [3]) was 134 nM; in series [1] (setting [4]), 117 nM and 152 nM. Also, the EC50 in series [1] (setting [5]) was 352 nM; in series [1] (setting [6]), 306 nM and 398 nM.
For `COc1ccc(/C=C/c2cc3ccccc3s2)cc1` [TZ-34-87], the Ki in series [1] (setting [3]) and in series [1] (setting [4]) was 884 nM in each case. For the same compound, the EC50 in series [1] (setting [5]) and in series [1] (setting [6]) was 2310 nM each time.
For the compound `COc1ccc(/C=C/c2ccc(C(=O)NCCF)s2)cc1` [TZ-34-94], the Ki is 160 nM in series [1] (setting [3]); 223 nM and 61 nM and 197 nM in series [1] (setting [4]). For the same compound, the EC50 in series [1] (setting [5]) is 419 nM; in series [1] (setting [6]), 583 nM and 160 nM and 514 nM.
As to `CN(C)c1ccc(/C=C/C=C/c2cccs2)cc1` [TZ-34-97], the Ki in series [1] (setting [3]) and in series [1] (setting [4]) was 69 nM throughout. In addition, the EC50 in series [1] (setting [5]) and in series [1] (setting [6]) was 180 nM in each case.
As for `C(=C\c1cccs1)/c1ccncc1` [TZ-34-100], the Ki in series [1] (setting [3]) and in series [1] (setting [4]) was 604 nM each time. The EC50 in series [1] (setting [5]) and in series [1] (setting [6]) was 1580 nM each time.
On to `O=[N+]([O-])c1ccc2nc(/C=C/c3cnccn3)ccc2c1` [TZ-36-20], for which the Ki in series [1] (setting [3]) and in series [1] (setting [4]) was 926 nM throughout. Besides, the EC50 in series [1] (setting [5]) and in series [1] (setting [6]) was 2420 nM in each case.
Regarding `Fc1ccc2nc(/C=C/c3cnccn3)ccc2c1` [TZ-36-22], the Ki in series [1] (setting [3]) and in series [1] (setting [4]) was 109 nM in each case. The EC50 in series [1] (setting [5]) and in series [1] (setting [6]) was 286 nM throughout.
As to `Brc1ccc2nc(/C=C/c3cnccn3)ccc2c1` [TZ-36-24], the Ki in series [1] (setting [3]) and in series [1] (setting [4]) was 453 nM each time. Moreover, the EC50 in series [1] (setting [5]) and in series [1] (setting [6]) was 1190 nM each time.
`COc1ccc2nc(/C=C/c3ccnc(F)c3)ccc2c1` [TZ-36-26-2T]: the Ki in series [1] (setting [3]) was 434 nM. In addition, the EC50 in series [1] (setting [5]) came out at 1140 nM.
Take `COc1ccc2nc(/C=C/c3ccsc3)ccc2c1` [TZ-36-30]: the Ki in series [1] (setting [3]) and in series [1] (setting [4]) was 122 nM throughout. The EC50 in series [1] (setting [5]) and in series [1] (setting [6]) was 320 nM in each case.
`COc1ccc2nc(/C=C/c3ccccn3)ccc2c1` [TZ-36-34]: the Ki in series [1] (setting [3]) and in series [1] (setting [4]) was 193 nM each time. Further, the EC50 in series [1] (setting [5]) and in series [1] (setting [6]) was 504 nM each time.
Consider `COc1ccc2nc(/C=C/c3ccc(Cl)nc3)ccc2c1` [TZ-36-38], for which the Ki in series [1] (setting [3]) is 39 nM; in series [1] (setting [4]) it was 31 nM and 47 nM. For the same compound, the EC50 is 101 nM in series [1] (setting [5]); 80 nM and 122 nM in series [1] (setting [6]).
For `COc1ccc2nc(/C=C/c3cccnc3Cl)ccc2c1` [TZ-36-40], the inhibition constant Ki in series [1] (setting [3]) and in series [1] (setting [4]) was 62 nM throughout. Moreover, the EC50 in series [1] (setting [5]) and in series [1] (setting [6]) was 163 nM each time.
In the case of `COc1ccc2nc(/C=C/c3ccnc(Cl)c3)ccc2c1` [TZ-36-42], the Ki in series [1] (setting [3]) was 54 nM; in series [1] (setting [4]), 52 nM and 56 nM. For the same compound, the EC50 in series [1] (setting [5]) was 140 nM; in series [1] (setting [6]), 136 nM and 145 nM.
With `COc1ccc2nc(/C=C/c3cccnc3C)ccc2c1` [TZ-36-44], the Ki in series [1] (setting [3]) and in series [1] (setting [4]) was 289 nM in each case. Further, the EC50 in series [1] (setting [5]) and in series [1] (setting [6]) was 755 nM in each case.
Regarding `COc1ccc2nc(/C=C/c3ccncc3Br)ccc2c1` [TZ-36-46], the Ki is 168 nM in series [1] (setting [3]); 140 nM and 195 nM in series [1] (setting [4]). Besides, the EC50 in series [1] (setting [5]) was 437 nM; in series [1] (setting [6]), 365 nM and 509 nM.
Take `COc1ccc2nc(/C=C/c3ccncc3Cl)ccc2c1` [TZ-36-48]: the Ki in series [1] (setting [3]) and in series [1] (setting [4]) was 414 nM in each case. In addition, the EC50 in series [1] (setting [5]) and in series [1] (setting [6]) was 1080 nM throughout.
On to `COc1ccc2nc(/C=C/c3cccs3)ccc2c1` [TZ-36-50], for which the Ki in series [1] (setting [3]) and in series [1] (setting [4]) was 403 nM throughout. The EC50 in series [1] (setting [5]) and in series [1] (setting [6]) was 1050 nM throughout.
Take `COc1ccc2nc(/C=C/c3ccco3)ccc2c1` [TZ-36-52]: the Ki in series [1] (setting [3]) and in series [1] (setting [4]) was 316 nM each time. For the same compound, the EC50 in series [1] (setting [5]) and in series [1] (setting [6]) was 827 nM in each case.
On to `COc1ccc(/C=C/c2ccc(-c3nccs3)s2)cc1` [TZ-37-96], for which the Ki in series [1] (setting [3]) is 98.5 nM; in series [1] (setting [4]), 102 nM and 95 nM.
On to `COC(=O)c1ccc(/C=C/c2ccncc2)cc1` [[^11C]TZ-20-35], for which, in series [2] (5 to 60 min post injection), the “brain uptake and washout (assessment in words)” value was “Brain uptake and the washout kinetics were very good”. In addition, in series [2] (5 min post injection), the “Biodistribution: Blood” value came out at 5.21 ± 0.20 % ID/g; the “Biodistribution: Brain” value is 5.71 % ID/g and 5.71 ± 0.44 % ID/g; the “Biodistribution: Fat” value is on record as 0.90 ± 0.42 % ID/g; the “Biodistribution: Heart” value was 4.72 ± 0.34 % ID/g. In addition, in series [2] (5 min post injection), the “Biodistribution: Kidney” value was determined as 4.73 ± 0.41 % ID/g, the “Biodistribution: Liver” value was 4.25 ± 0.36 % ID/g, the “Biodistribution: Lung” value turned out to be 4.78 ± 0.21 % ID/g and the “Biodistribution: Muscle” value was 4.06 ± 0.13 % ID/g. In series [2] (5 min post injection), the “Biodistribution: Pancreas” value came out at 3.64 ± 0.44 % ID/g and the “Biodistribution: Spleen” value is reported as 4.60 ± 0.16 % ID/g. For the same compound, in series [2] (30 min post injection), the organ recovery was 52%; the “Biodistribution: Blood” value is listed as 2.79 ± 0.43 % ID/g; the “Biodistribution: Brain” value is 2.43 % ID/g and 2.43 ± 0.41 % ID/g; the “Biodistribution: Fat” value was determined as 0.86 ± 0.07 % ID/g. In series [2] (30 min post injection), the “Biodistribution: Heart” value stood at 2.61 ± 0.54 % ID/g, the “Biodistribution: Kidney” value was 4.43 ± 0.42 % ID/g, the “Biodistribution: Liver” value is recorded as 8.72 ± 0.37 % ID/g and the “Biodistribution: Lung” value stood at 2.94 ± 0.38 % ID/g. Besides, in series [2] (30 min post injection), the “Biodistribution: Muscle” value came out at 2.25 ± 0.33 % ID/g, the “Biodistribution: Pancreas” value is given as 3.54 ± 0.90 % ID/g and the “Biodistribution: Spleen” value is reported as 3.44 ± 0.23 % ID/g. Also, in series [2] (60 min post injection), the organ recovery was found to be 34%; the “Biodistribution: Blood” value is 1.75 ± 0.25 % ID/g; the “Biodistribution: Brain” value was 1.68 % ID/g and 1.68 ± 0.26 % ID/g; the “Biodistribution: Fat” value turned out to be 0.58 ± 0.09 % ID/g. In series [2] (60 min post injection), the “Biodistribution: Heart” value turned out to be 1.80 ± 0.18 % ID/g, the “Biodistribution: Kidney” value was 4.23 ± 0.47 % ID/g, the “Biodistribution: Liver” value is 10.17 ± 1.08 % ID/g and the “Biodistribution: Lung” value is 2.21 ± 0.44 % ID/g. In addition, in series [2] (60 min post injection), the “Biodistribution: Muscle” value worked out at 1.18 ± 0.10 % ID/g, the “Biodistribution: Pancreas” value is on record as 5.42 ± 1.25 % ID/g and the “Biodistribution: Spleen” value is 3.30 ± 0.36 % ID/g.
